Data taken from ChEMBL document CHEMBL1124454, “2,3-Dihydro-5-benzofuranols as antioxidant-based inhibitors of leukotriene biosynthesis” (J Med Chem, 1989).

Key:
[1] = species on record: Homo sapiens; assay: cells
[2] = physchem; conditions: octanol/water
Description: Partition coefficient (logP)

[3] = species on record: Homo sapiens; assay: Inhibitory activity against Leukotriene (LTB4) biosynthesis in isolated human polymorphonuclear cells (PMNs); not active; assay type: functional

Structure (SMILES)	IC50 [1] [nM]	logP [2]	IC50 [3]
COC(=O)c1ccc(OCCCOc2cc3c(cc2O)CCO3)cc1	71	3.7	
Oc1cc2c(cc1CCCOc1ccccc1)OCC2	57	4.3	
Cc1c(O)c(CCCSc2ccccc2)cc2c1CCO2	19	5.9	
OCCc1cccc(OCCCc2cc3c(cc2O)CCO3)c1	60	3.5	
CC(C)c1cc2c(cc1O)CCO2	300	3.3	
Oc1cc2c(cc1SCCCc1ccccc1)OCC2	28	4.9	
Oc1cc2c(cc1CCCOc1ccc(F)cc1)OCC2	28	4.5	
CCCOc1cc2c(cc1O)CCO2	470	2.6	
Oc1ccc2c(c1CCCSCc1cccnc1)CCO2	2000	3.3	
Oc1ccc2c(c1CCCNc1ccccc1)CCO2	1400	3.8	
CCCc1c(O)ccc2c1CCO2	1000	3.4	
Oc1cc2c(cc1Sc1cccnc1)OCC2	1200	2.8	
Oc1ccc2c(c1CCCOc1ccccc1)CCO2	290	4.3	
CCCc1cc2c(c(C(C)(C)C)c1O)CCO2	430	5.4	
CCCCOc1cc2c(cc1O)CCO2	180	3.1	
Oc1cc2c(cc1OCCCc1ccccc1)OCC2	51	4.2	
COCCOc1cc2c(cc1O)CCO2	3200	1.3	
CC(C)(C)c1c(O)ccc2c1CCO2	730	3.7	
O=C(O)CCCc1cc2c(cc1O)CCO2			Not Active
Oc1cc2c(cc1Cc1ccccc1)OCC2	280	3.9	
Oc1cc2c(cc1Oc1ccccc1)OCC2	420	3.7	
COC(=O)c1cccc(OCCCOc2cc3c(cc2O)CCO3)c1	68	3.7	
Oc1cc2c(cc1Sc1ccccn1)OCC2	2800	2.8	
OCCc1ccc(OCCCc2cc3c(cc2O)CCO3)cc1	340	3.5	
Oc1cc2c(cc1OCCCOc1ccccc1)OCC2	320	3.4	
OCCCc1cc2c(cc1O)CCO2	10000	1.4	
COC(=O)Cc1ccc(OCCCOc2cc3c(cc2O)CCO3)cc1	120	3.1	

Structure (SMILES)	IC50 [1] [nM]	logP [2]	IC50 [3]
CCCc1ccc(OCCCc2cc3c(cc2O)CCO3)cc1	9	6	
Oc1cc2c(cc1CCCSc1ccccc1)OCC2	19	4.9	
O=C(O)c1cccc(OCCCOc2cc3c(cc2O)CCO3)c1	5100		
Oc1cc2c(cc1CCCOc1ccc(Cl)cc1)OCC2	55	5.1	
CCCc1cc2c(cc1O)CCO2	290	3.4	
OCCCc1c(O)ccc2c1CCO2	33000	1.4	
CCCc1cc2c(c(Br)c1O)CCO2	65	4.3	
Oc1cc2c(cc1CCCSCc1cccnc1)OCC2	280	3.3	
CC(C)(C)c1cc2c(cc1O)CCO2	790	3.7	
Oc1cc2c(cc1Sc1ccncc1)OCC2	2600	2.8	
N#CCCCc1cc2c(cc1O)CCO2	1400	1.8	
C=CCc1cc2c(c(C)c1O)CCO2	130	3.5	
C=CCc1c(O)ccc2c1CCO2	2100	2.9	
Oc1cc2c(cc1Sc1ccccc1)OCC2	140	4.1	
Oc1ccc2c(c1CCCSc1ccccc1)CCO2	120	4.9	
Oc1cc2c(cc1CCCNc1ccccc1)OCC2	140	3.8	
Oc1cc2c(cc1SCc1ccccc1)OCC2	110	4.1	
Oc1cc2c(cc1SCCc1ccccc1)OCC2	66	4.4	
COC(=O)c1ccccc1OCCCOc1cc2c(cc1O)CCO2	47	3.4	
O=C(O)Cc1ccc(OCCCOc2cc3c(cc2O)CCO3)cc1			Not Active
Oc1ccc2c(c1)CCO2	4000	1.7	
OCCc1ccccc1OCCCc1cc2c(cc1O)CCO2	290	3.5	
C=CCc1cc2c(cc1O)CCO2	480	2.9	
CCCc1cc2c(c(C)c1O)CCO2	160	4.1	
O=C(O)c1ccccc1OCCCOc1cc2c(cc1O)CCO2			Not Active
O=C1CCN(c2ccccc2)N1 [PHENIDONE]	8000		
